Test results as given in patent US11572371B2, “BRD4 inhibitor” (HINOVA PHARMACEUTICALS INC., priority 2017, dated 2023).

How the values were obtained:
BRD2(1, 2) = BRD2(1, 2) (Homo sapiens (Human), UniProt P25440); assay: AlphaScreen binding assay, BRD2 (D1+D2)
Experimental: (§1) Homogeneous time-resolved fluorescence (HTRF) was used to detect the binding of the compound to BRD4 (D1 +D2) and BRDT (D1) proteins, and the AlphaScreen method was used to detect the binding of the compound to BRD2 (D1+D2) and BRD3 (D1+D2) proteins.
(§2) Compounds were screened in vitro, and each concentration of the compound was diluted to 10 different concentrations. Four proteins, BRD4 (D1 +D2), BRDT (D1), BRD2 (D1+D2) and BRD3 (D1+D2), were selected to determine their IC50 values (see Table 1).
(§3) The test compound was dissolved in dimethylsulfoxide (DMSO) and stored at a concentration of 10 mM.
(§4) 6. AlphaScreen detection step:
(§5) 1) Preparing 1-fold concentration of detection buffer
(§6) 1-fold concentration of detection buffer was prepared (modified HEPES buffer).
(§7) 2) Gradient dilution of compounds
(§8) The compound was transferred to the detection plate with an Echo autosampler for gradient dilution, so that the final concentration of dimethyl sulfoxide was 0.1%.
(§9) 3) Preparation of protein solution
(§10) The protein was dissolved in a 1-fold concentration of detection buffer.
(§11) 4) Preparation of substrate solution
(§12) The peptide was dissolved in 1-fold concentration of detection buffer to prepare a substrate solution.
(§13) 5) 5 μL protein solution was transferred to the assay plate, and 5 μL 1-fold concentration of detection buffer was placed in the negative control well.
(§14) 6) The plate was incubated at room temperature for 15 minutes.
(§15) 7) 5 μL substrate solution was added to each well to start the reaction.
(§16) 8) The plate was incubated at room temperature for 60 minutes.
(§17) 9) Acceptor and donor solutions were prepared in 1-fold concentration of assay buffer.
(§18) 15 μL acceptor and donor solution were added, respectively, and the plate was incubated at room temperature for 60 minutes without light.
(§19) 10) The end point was read in EnSpire and Alpha mode.
(§20) 11) The curve was fitted.
(§21) The experimental data were entered into an Excel file, and the equation (1) was used to get the inhibitory rate. Inh %=(Max−Signal)/(Max−Min)*100 Equation (1)
(§22) The resultant data were entered into GraphPad software, and the IC50 value was obtained using equation (2). Y=Bottom+(Top−Bottom)/(1+10^((LogIC50−X)*Hill Slope)) Equation (2)
(§23) Wherein, Y-axis is the inhibition rate, while X-axis is the compound concentration.

BRDT(D1) = BRDT(D1) (Homo sapiens (Human), UniProt Q58F21); assay: HTRF binding assay, BRDT (D1)
Experimental: as §1, §2
BRDT(D1)(Active Motif, Cat.No.31450)
as §3
5. Homogeneous Time-Resolved Fluorescence Detection Steps:
1) All compounds were gradiently diluted on Echo plate according to the arrangement of the test plate. The final concentration of DMSO was 0.1%.
2) Compounds or DMSO was transferred to a 384-well assay plate by using Echo autosampler.
3) 2× concentration of protein and peptide mixture was added to the assay plate.
4) 2× concentration of the mixed detection solution was added to the assay plate and shaken for 30 seconds.
5) The plate was incubated at room temperature for 2 hours.
6) The fluorescence signal was read on Envision microplate reader (with excitation light wavelength at 340 nm and emission light wavelength at 615 nm and 665 nm).
as §21, §22, §23

CWR22RV1 cells = assay: Inhibition of CWR22RV1 cell proliferation (CCK-8); assay type: cell-based; settings: Homo sapiens, CWR22Rv1, 144 h; cultured for 6 days, CCK-8; read-out: IC50 on CWR22RV1
Experimental: Test Example 2 Biological Determination of the Inhibitory Effect of the Compound on CWR22RV1 Cell Proliferation
Experimental Materials: • CWR22RV1 cell line (Cell bank of Chinese Academy of Sciences, TCHu100) • FBS (Gibco, Cat. No. 10099-141) • 0.01M PBS (Biosharp, Cat. No. 162262) • RIPM1640 (Hyclone, Cat. No. 308090.01) • Penicillin-Streptomycin (Hyclone, Cat. No. SV30010) • Cell counting kit-8(Signalway Antibody, Cat. No. CP002) • DMSO (Sigma, Cat. No. D5879) • Centrifuge Tube, 15 ml (Excell Bio, Cat. No. CS015-0001) • Cell Culture Dish, (Excell Bio, Cat. No. CS016-0128) • 96-well cell culture cluster (Corning, Cat. No. 3599)
(1) CWR22RV1 cells were subcultured with cell culture medium, and well-growth cells were inoculated in 96-well plates, with 80 μL per well. The number of cells in each well was 1500, and the plate was cultured overnight in a 37° C., 5% CO2 cell incubator.
(2) The drug was prepared as a 30 mM stock solution using dimethyl sulfoxide (DMSO). before use, the stock solution was diluted 3 times with DMSO, and then diluted by a 3 times gradient to obtain 9 concentration gradients. The compound at each concentration was further diluted 200 times with the culture solution (to ensure that the DMSO concentration in the culture system was 0.1%), and each concentration was repeated 2 wells. 20 μL of the diluted compound was added to the cell culture wells (with final concentrations of 10 μM, 3.3 μM, 1.1 μM . . . ), and gently shaked to mix. In addition, three negative control wells containing only cells and three blank control wells containing only culture medium (6 wells each containing 20 μL DMSO 200-fold diluted with culture medium) were set.
(1) After being cultured for 6 days, 10 μL CCK-8 was added to each well, and the cells were further cultured in a 5% CO2 cell incubator at 37° C. for 2.5 hours.
(2) The absorbance (OD value) was measured at 450 nm with a multifunctional microplate reader.
(3) The data were analyzed with the Dose-response-inhibition equation in the software GraphPad Prism6, and IC50 values were obtained.

BRD3(1, 2) = BRD3(1, 2) (Homo sapiens (Human), UniProt Q15059); assay: AlphaScreen binding assay, BRD3 (D1+D2)
Sequence of BRD3(1, 2) (Q15059 29-417): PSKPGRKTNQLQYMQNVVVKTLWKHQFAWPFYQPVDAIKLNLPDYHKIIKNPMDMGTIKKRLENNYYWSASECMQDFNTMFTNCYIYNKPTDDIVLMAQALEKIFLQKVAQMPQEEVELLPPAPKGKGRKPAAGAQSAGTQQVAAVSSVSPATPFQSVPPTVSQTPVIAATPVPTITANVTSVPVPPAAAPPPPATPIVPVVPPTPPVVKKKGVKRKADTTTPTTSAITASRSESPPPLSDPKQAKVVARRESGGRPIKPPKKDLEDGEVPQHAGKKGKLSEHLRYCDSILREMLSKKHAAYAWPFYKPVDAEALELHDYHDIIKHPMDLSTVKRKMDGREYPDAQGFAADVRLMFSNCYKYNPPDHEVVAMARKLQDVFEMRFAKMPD
Experimental: as §1, §2, §3, §4, §5, §6, §7, §8, §9, §10, §11, §12, §13, §14, §15, §16, §17, §18, §19, §20, §21, §22, §23

BRD4(1, 2) = BRD4(1, 2) (Homo sapiens (Human), UniProt O60885); assay: HTRF binding assay, BRD4 (D1+D2)
Source text: The experimental data were entered into an Excel file, and the equation (1) was used to get the inhibitory rate. Inh %=(Max−Signal)/(Max−Min)*100 Equation (1) […]

Sequence of BRD2(1, 2) (P25440 65-459): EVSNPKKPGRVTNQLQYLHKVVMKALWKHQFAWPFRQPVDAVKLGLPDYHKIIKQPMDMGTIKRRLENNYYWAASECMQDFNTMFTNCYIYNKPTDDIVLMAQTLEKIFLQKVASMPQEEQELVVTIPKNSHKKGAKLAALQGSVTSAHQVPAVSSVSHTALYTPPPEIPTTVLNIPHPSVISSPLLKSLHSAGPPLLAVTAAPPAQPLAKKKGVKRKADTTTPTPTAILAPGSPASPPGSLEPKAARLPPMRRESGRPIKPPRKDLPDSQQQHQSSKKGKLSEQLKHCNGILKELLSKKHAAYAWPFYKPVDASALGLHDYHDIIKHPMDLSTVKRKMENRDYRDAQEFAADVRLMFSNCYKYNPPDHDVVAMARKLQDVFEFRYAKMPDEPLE

CCOCc1nnc(C[C@@H]2N=C(c3ccc(Cl)cc3)c3c(sc(C)c3C)-n3c(C)nnc32)o1 [Compound 6, (S)-2-((4-(4-chlorophenyl)-2,3,9-trimethyl-6H-thieno[3,2-f][1,2,4]triazolo[4,3-a][1,4]diaza-6-yl)methyl)-5-(ethoxylmethyl)-1,3,4-oxodiazole]
IC50 (BRD2(1, 2)): 15 nM | IC50 (BRDT(D1)): 46 nM | IC50 (CWR22RV1 cells): 61 nM | IC50 (BRD3(1, 2)): 20 nM

Cc1sc2c(c1C)C(c1ccc(Cl)cc1)=N[C@@H](Cc1nnc(C(C)C)o1)c1nnc(C)n1-2 [Compound 19, (S)-2-((4-(4-chlorophenyl)-2,3,9-trimethyl-6H-thieno[3,2-f][1,2,4]triazolo[4,3-a][1,4]diaza-6-yl)methyl)-5-isopropyl-1,3,4-oxodiazole]
IC50 (BRD2(1, 2)): 8.3 nM | IC50 (BRDT(D1)): 51 nM | IC50 (CWR22RV1 cells): 28 nM | IC50 (BRD3(1, 2)): 17 nM

Cc1sc2c(c1C)C(c1ccc(Cl)cc1)=N[C@@H](Cc1nnc(C3CC3)o1)c1nnc(C)n1-2 [Compound 20, (S)-2-((4-(4-chlorophenyl)-2,3,9-trimethyl-6H-thieno[3,2-f][1,2,4]triazolo[4,3-a][1,4]diaza-6-yl)methyl)-5-cyclopropyl-1,3,4-oxodiazole]
IC50 (BRD2(1, 2)): 10.1 nM | IC50 (BRDT(D1)): 49 nM | IC50 (CWR22RV1 cells): 37 nM | IC50 (BRD3(1, 2)): 20 nM

CCc1nnc(C[C@@H]2N=C(c3ccc(Cl)cc3)c3c(sc(C)c3C)-n3c(C)nnc32)o1 [Compound 22, (S)-2-((4-(4-chlorophenyl)-2,3,9-trimethyl-6H-thieno[3,2-f][1,2,4]triazolo[4,3-a][1,4]diaza-6-yl)methyl)-5-ethyl-1,3,4-oxodiazole]
IC50 (BRD4(1, 2)): 25 nM | IC50 (BRD2(1, 2)): 10.8 nM | IC50 (BRDT(D1)): 46 nM | IC50 (CWR22RV1 cells): 47 nM | IC50 (BRD3(1, 2)): 21 nM
